≈ marks a conversion by molar mass, not a printed value. Where “and” joins values, the source holds several entries; their conditions need not be identical. Equal values may be shown once.
Key:
[1] = DNDI: Cytotoxicity against L929 mouse fibroblasts, 72 hour.; format: toxicity, cell-based; settings: mouse, L929 mouse fibroblasts
[2] = system: Trypanosoma brucei; experiment: DNDI: Inhibition of Human African Trypanosomiasis, SBRI 427, in vitro; format: functional, organism-based
[3] = system: Trypanosoma brucei; experiment: DNDI: Mean survival time in days (MSD) of mice after intraperitoneal injection of Human African Trypanosomiasis (HAT), EATRO 110, in vivo at 20 mg/kg/day for 4 days.; format: functional, Mus musculus
[4] = mouse, microsomes, 1 µM
Description: DNDI: in vitro intrinsic clearance in mouse liver microsomes at a concentration of 1uM

[5] = in vitro; settings: mouse, liver microsomes, t (1 / 2)
Description: DNDI: half life in mouse liver microsomes at a concentration of 1uM

[6] = DNDI: Lipophilicity measured in Chromatographic hydrophobicity index (CHI) assay, pH 7.4; format: physicochemical; settings: buffer
[7] = DNDI: Cytotoxicity against L929 mouse fibroblasts, CYTO-SP, 24 hour; format: toxicity, cell-based; settings: mouse, L929 mouse fibroblasts
[8] = DNDI: Solubility in phosphate buffered saline at pH7.4 measured by nephelometry at room temperature (NEPH-RT); format: physicochemical; settings: pH 7.4
[9] = system: Plasmodium falciparum; experiment: DNDI: Inhibition of the malaria parasite Plasmodium falciparum, in vitro; format: functional, organism-based; settings: K1
[10] = system: Trypanosoma brucei rhodesiense; experiment: DNDI: Inhibition of Human African Trypanosomiasis (HAT), STIB 900, in vitro; format: functional, organism-based
[11] = system: Leishmania donovani; experiment: DNDI: Inhibition of formation of Leishmania donovani (strain MHOM/ET/67/L82) axenic amastigotes, in vitro.; format: functional, organism-based
[12] = DNDI: Cytotoxicity against L-6 rat myoblasts from skeletal muscle cells; format: toxicity, cell-based, L6; settings: L-6 rat skeletal muscle myoblasts
[13] = system: Trypanosoma cruzi; experiment: DNDI: Inhibition of Chagas Disease parasite Trypanosoma cruzi (Tulahuen LacZ, Clone C4), in vitro.; format: functional, organism-based
[14] = system: Trypanosoma brucei; experiment: DNDI: Inhibition of Human African Trypanosomiasis, Cross 22, in vitro; format: functional, organism-based
[15] = DNDI: half life in mouse liver microsomes at a concentration of 10uM; format: ADME, Microsome
[16] = DNDI: Solubility in phosphate buffered saline at pH7.4 measured by optical density (turbidimetry) at room temperature (OD-RT); format: physicochemical; settings: pH 7.4
[17] = DNDI: half life in human liver microsomes at a concentration of 10uM; format: ADME, Microsome
[18] = DNDI: in vitro intrinsic clearance in human liver microsomes at a concentration of 10uM; format: ADME, Microsome
[19] = DNDI: in vitro intrinsic clearance in mouse liver microsomes at a concentration of 10uM; format: ADME, Microsome; settings: read-out: CLint in vitro
[20] = Trypanosoma brucei, SBRI 427, read-out: IC50

SMILES	chromatographic logD [6]	IC50 [9] [µg/mL]	IC50 [10] [µg/mL]	IC50 [11] [µg/mL]	IC50 [13] [µg/mL]	IC50 [2]	IC50 [14] [µg/mL]	half-life at 10 µM [15] [min]	solubility kinetic [16] [µM]	half-life at 10 µM [17] [min]	CLint in vitro [18] [µL/min/mg]	microsomal CLint at 10 µM [19] [µL/min/mg]	IC50 at 72 h [1] [µg/mL]	IC50 [2, 20] [µg/mL]	MSD [3] [days]	CLint in vitro [4] [µL/min/mg]	half-life at 1 µM [5] [min]	IC50 at 24 h [7] [µg/mL]	solubility kinetic [8] [µM]	IC50 [12] [µg/mL]
Cc1ccc(CNC(CC(C)C)c2nc(Cc3ccccc3)c(N3CCOCC3)o2)cc1 (stereo not given)	–	–	–	–	–	–	–	–	–	–	–	–	> 10	1.64 (≈ 3.78 µM)	4	155	5	–	–	–
O/N=C(\Nc1cccc(F)c1)c1cccnc1Oc1c(F)cccc1F	–	–	–	–	–	–	–	–	–	–	–	–	> 10	> 5	4	–	–	–	–	–
CCc1cccc(N/C(=N/O)c2ccc(OC)cc2)c1	3.76	3.87 (≈ 14.3 µM)	34.3 (≈ 127 µM)	26.6 (≈ 98.3 µM)	17 (≈ 62.9 µM)	–	–	–	–	–	–	–	> 10	0.76 (≈ 2.81 µM)	4	470	2	> 50	> 200	44.7 (≈ 165 µM)
Cc1ccc(CNC(CCc2ccccc2)c2nc(-c3ccccc3)c(N3CCCCC3)o2)cc1 (stereo not given)	–	–	–	–	–	–	–	–	–	–	–	–	> 10	> 5	4	–	–	–	–	–
CCCCCC(C)NCc1coc(-c2ccc(C(C)(C)C)cc2)n1 (stereo not given)	–	0.694 (≈ 2.11 µM)	0.302 (≈ 0.919 µM)	6.61 (≈ 20.1 µM)	2.8 (≈ 8.52 µM)	0.86 µg/mL and 0.42 µg/mL	0.49 (≈ 1.49 µM)	–	–	–	–	–	1.36 (≈ 4.14 µM)	–	–	17	51	9 (≈ 27.4 µM)	–	3.25 (≈ 9.89 µM)
CC(C)(C)c1ccc(Oc2ncccc2/C(=N/O)Nc2cccc(F)c2)cc1	–	–	–	–	–	–	–	–	–	–	–	–	3.39 (≈ 8.93 µM)	> 5	4	35.83	23.7	–	–	–
CCc1ccc(Oc2ncccc2/C(=N\O)NC2CCCCC2)cc1	–	–	–	–	–	–	–	–	–	–	–	–	> 10	0.09 (≈ 0.265 µM)	4	–	–	–	–	–
CCc1ccc(/C(=N/O)NC2CCCCC2)cc1	4.6	> 5	8.75 (≈ 35.5 µM)	11.3 (≈ 45.9 µM)	10.8 (≈ 43.7 µM)	–	–	–	–	–	–	–	> 10	0.98 (≈ 3.98 µM)	4	210	4	> 50	50 (≈ 12.3 µg/mL)	53.8 (≈ 218 µM)
COc1ccc(CNC(CCc2ccccc2)c2nc(Cc3ccccc3)c(N3CCCCC3)o2)cc1OC (stereo not given)	> 5.2	–	–	–	–	–	–	–	–	–	–	–	> 10	2.54 (≈ 4.83 µM)	4	354	2	–	3 (≈ 1.58 µg/mL)	–
CCCCCC(C)NCc1coc(-c2ccc(OC(C)CC)cc2)n1 (stereo not given)	> 5.2	–	–	–	–	–	–	–	–	–	–	–	1.55 (≈ 4.5 µM)	0.68 (≈ 1.97 µM)	4	3	257	–	3 (≈ 1.03 µg/mL)	–
CCc1ccc(N/C(=N/O)c2ccc(OC)cc2)cc1	–	–	–	–	–	–	–	–	–	–	–	–	–	3.69 (≈ 13.6 µM)	4.5	–	–	> 50	–	–
O/N=C1/CCCCCN1	–	> 5	> 90	> 90	> 30	–	–	–	–	–	–	–	> 10	> 5	–	–	–	> 50	–	> 90
CCCCCC(C)NCc1coc(-c2ccc(OCC(C)C)cc2)n1 (stereo not given)	> 5.2	–	–	–	–	–	–	–	–	–	–	–	1.48 (≈ 4.3 µM)	0.5 (≈ 1.45 µM)	4	9	94	–	3 (≈ 1.03 µg/mL)	–
CCCCCC(C)NCc1coc(-c2ccc(Cl)c(Cl)c2)n1 (stereo not given)	–	4.3 (≈ 12.6 µM)	0.487 (≈ 1.43 µM)	16 (≈ 46.9 µM)	22.2 (≈ 65 µM)	–	–	–	–	–	–	–	4.75 (≈ 13.9 µM)	3.68 (≈ 10.8 µM)	–	–	–	17 (≈ 49.8 µM)	–	13.3 (≈ 39 µM)
CCCCCC(C)NCc1coc(-c2ccc(OC3CCCC3)cc2)n1 (stereo not given)	> 5.2	–	–	–	–	–	–	–	–	–	–	–	1.38 (≈ 3.87 µM)	0.73 (≈ 2.05 µM)	4	13	67	–	6 (≈ 2.14 µg/mL)	–
CCCCCC(C)NCc1coc(-c2cccc(OC)c2)n1 (stereo not given)	4.32	–	–	–	–	–	–	54	–	127	23	53	6.95 (≈ 23 µM)	2.26 (≈ 7.47 µM)	–	–	–	18 (≈ 59.5 µM)	–	–
CCc1ccc(Oc2ncccc2/C(=N\O)NC2CCCCC2O)cc1 (stereo not given)	–	–	–	–	–	–	–	–	–	–	–	–	> 10	> 5	4	51	17	–	–	–
O/N=C(\NC1CCCCC1)c1ccsc1	–	> 5	25.9 (≈ 115 µM)	13.6 (≈ 60.8 µM)	> 30	–	–	–	–	–	–	–	> 10	> 5	–	–	–	> 50	–	> 83.5
CCc1ccc(Oc2ncccc2/C(=N\O)NC2CCCC[C@@H]2N)cc1 (stereo not given in full)	–	–	–	–	–	–	–	–	–	–	–	–	> 10	> 5	4	7	116	–	–	–
Cc1ccc(/C(=N/O)NC2CCCCC2)c(Oc2ccc(C(C)(C)C)cc2)n1	–	–	–	–	–	–	–	–	–	–	–	–	4.06 (≈ 10.6 µM)	> 5	4.5	98.83	8.61	–	–	–

Continued, in another order:

chromatographic logD [6]	IC50 [9] [µg/mL]	IC50 [10] [µg/mL]	IC50 [11] [µg/mL]	IC50 [13] [µg/mL]	IC50 [2]	IC50 [14] [µg/mL]	half-life at 10 µM [15] [min]	solubility kinetic [16] [µM]	half-life at 10 µM [17] [min]	CLint in vitro [18] [µL/min/mg]	microsomal CLint at 10 µM [19] [µL/min/mg]	SMILES	IC50 at 72 h [1] [µg/mL]	IC50 [2, 20] [µg/mL]	MSD [3] [days]	CLint in vitro [4] [µL/min/mg]	half-life at 1 µM [5] [min]	IC50 at 24 h [7] [µg/mL]	solubility kinetic [8] [µM]	IC50 [12] [µg/mL]
4.43	4.41 (≈ 14.2 µM)	62.6 (≈ 202 µM)	73.4 (≈ 236 µM)	> 30	–	–	4	100 (≈ 31 µg/mL)	64	45	767	O/N=C(\NC1CCCCC1)c1ccccc1Oc1ccccc1	> 10	0.62 (≈ 2 µM)	–	–	–	> 50	–	> 90
–	2.7 (≈ 8.75 µM)	18.7 (≈ 60.6 µM)	4.75 (≈ 15.4 µM)	3.63 (≈ 11.8 µM)	–	–	–	–	–	–	–	O/N=C(\NCC1CCCCC1)c1ccccc1-c1ccccc1	2.72 (≈ 8.82 µM)	2.15 (≈ 6.97 µM)	–	–	–	16.1 (≈ 52.1 µM)	–	14.8 (≈ 47.9 µM)
4.3	2.57 (≈ 9.17 µM)	18.5 (≈ 66 µM)	53.1 (≈ 189 µM)	21.4 (≈ 76.3 µM)	–	–	12	50 (≈ 14 µg/mL)	260	11	243	O/N=C(\NC1CCCC1)c1ccccc1-c1ccccc1	> 10	1.17 (≈ 4.17 µM)	–	–	–	> 50	–	> 90
4.83	–	–	–	–	–	–	30	6.3 (≈ 1.99 µg/mL)	–	–	97	CCCCCC(C)NCc1coc(-c2cccc(OCC)c2)n1 (stereo not given)	6.82 (≈ 21.6 µM)	2.13 (≈ 6.73 µM)	–	–	–	17 (≈ 53.7 µM)	–	–
4.66	1.83 (≈ 6.39 µM)	0.582 (≈ 2.03 µM)	13.6 (≈ 47.6 µM)	15.7 (≈ 54.8 µM)	–	–	94	12.5 (≈ 3.58 µg/mL)	–	–	31	CCCCCC(C)NCc1coc(-c2ccc(C)cc2)n1 (stereo not given)	5.76 (≈ 20.1 µM)	1.95 (≈ 6.81 µM)	–	–	–	17 (≈ 59.4 µM)	–	12.6 (≈ 43.9 µM)
–	4.43 (≈ 14 µM)	20.9 (≈ 66.1 µM)	4.96 (≈ 15.7 µM)	5.38 (≈ 17 µM)	–	–	–	–	–	–	–	CCc1cccc(N/C(=N/O)c2ccccc2-c2ccccc2)c1	2.4 (≈ 7.59 µM)	1.23 (≈ 3.89 µM)	–	–	–	25.3 (≈ 80 µM)	–	9.67 (≈ 30.6 µM)
4.2	–	–	–	–	–	–	23	12.5 (≈ 3.52 µg/mL)	114	25	126	CCCCCC(C)NCc1ccc(-c2ccccc2)cc1 (stereo not given)	< 3.13	0.66 (≈ 2.35 µM)	–	–	–	> 50	–	–
5.02	2.6 (≈ 8.47 µM)	0.478 (≈ 1.56 µM)	18.7 (≈ 60.8 µM)	11.3 (≈ 36.8 µM)	0.95 µg/mL and 1.02 µg/mL	1.54 (≈ 5.02 µM)	173	6.3 (≈ 1.93 µg/mL)	–	–	17	CCCCCC(C)NCc1coc(-c2ccc(Cl)cc2)n1 (stereo not given)	4.88 (≈ 15.9 µM)	1.7 (≈ 5.54 µM)	–	–	–	17 (≈ 55.4 µM)	–	10.9 (≈ 35.4 µM)
–	2.41 (≈ 6.86 µM)	0.532 (≈ 1.51 µM)	20.4 (≈ 58 µM)	8.2 (≈ 23.3 µM)	1.34 µg/mL and 1.55 µg/mL	2.01 (≈ 5.72 µM)	–	–	–	–	–	CCCCCC(C)NCc1coc(-c2ccc(Br)cc2)n1 (stereo not given)	4.47 (≈ 12.7 µM)	0.9 (≈ 2.56 µM)	–	–	–	> 50	–	12.7 (≈ 36.1 µM)
–	2.18 (≈ 7.72 µM)	8.99 (≈ 31.8 µM)	13.3 (≈ 47 µM)	7.73 (≈ 27.4 µM)	–	–	–	–	–	–	–	CCC(CC)N/C(=N\O)c1ccccc1-c1ccccc1	> 10	1.19 (≈ 4.21 µM)	–	–	–	> 50	–	17.2 (≈ 60.9 µM)
5.02	–	–	–	–	–	–	103	12.5 (≈ 3.84 µg/mL)	–	–	28	CCCCCC(C)NCc1coc(-c2cccc(Cl)c2)n1 (stereo not given)	7.27 (≈ 23.7 µM)	2.08 (≈ 6.78 µM)	–	–	–	14 (≈ 45.6 µM)	–	–

From ChEMBL document CHEMBL1857833, “Screening and optimization of specific chemical series against human African Trypanosomiasis (HAT)”
